Values of other authors as cited in patent publication US9758831B2, “Methods of predicting clinical course and treating multiple sclerosis” (Tel HaShomer Medical Research Infrastructure and Services …, priority 2009, dated 2017).

Legend:
RRN3/rpa43 complex = details: in vivo
[1] = system: Experimental Autoimmune Encephalomyelitis; details: in vivo

Structure (SMILES) | formation of RRN3/rpa43 complex (RRN3/rpa43 complex) | association of RRN3 with RNA polymerase I (RRN3) | phosphorylation of RRN3 (RRN3) | maturation, antigen processing and presentation of dendritic cells (dendritic cells) | T-cell inflammatory responses [1] | effect on Experimental Autoimmune Encephalomyelitis [1] | IFNγ production (T lymphocyte) | T cell apoptosis (T lymphocyte) | lymphocyte proliferation (T lymphocyte) | IL2 and IL2 receptor expression (T lymphocyte; activated T cells) | TNF-a and IL-6 production (activated macrophages)
C[C@@H]1C[C@@H]([C@H](O)CC2CC(=O)NC(=O)C2)C(=O)[C@@H](C)C1 [Cycloheximide] | inhibits the formation of a RRN3/rpa43 complex in vivo | causes its dissociation from RNA polymerase I | inhibits the phosphorylation of RRN3 | – | – | – | – | – | – | – | –
CC(C)[C@]12O[C@H]1[C@@H]1O[C@]13[C@]1(O[C@H]1C[C@H]1C4=C(CC[C@@]13C)C(=O)OC4)[C@@H]2O [Triptolide, Trisoxireno(4b,5:6,7:8a,9)phenanthro(1,2-c)furan-1(3H)-one, 3b,4,4a,6,6a,7a,7b,8b,9,10-decahydro-6-hydroxy-8b-methyl-6a-(1-methylethyl)-, (3bS,4aS,5aS,6R,6aR,7aS,7bS,8aS,8bS)-] | – | – | – | can inhibit | modulates T-cell inflammatory responses | ameliorates Experimental Autoimmune Encephalomyelitis | inhibition | T cell apoptosis induction | inhibition of lymphocyte prolipheration | decreased | can suppress
